ChEMBL document CHEMBL4706476, “Novel Tetrahydropyrido[4,3-d]pyrimidines as Potent Inhibitors of Chaperone Heat Shock Protein 90” (J Med Chem, 2016)
Converted amounts (≈) assume the structure as drawn. Blank lines part the entries; values can stand above or below the compound they belong to.

Tests used:
CYP3A4 = CYP3A4 (Homo sapiens, UniProt P08684); test: Inhibition of CYP3A4 in human liver microsomes at 10 uM using midazolam as substrate preincubated for 5 mins followed by NADPH addition and measured after 20 mins by LC-MS/MS analysis relative to control; format: ADME; conditions: probe midazolam, time 25 min
Sequence of CYP3A4 (P08684 whole entry): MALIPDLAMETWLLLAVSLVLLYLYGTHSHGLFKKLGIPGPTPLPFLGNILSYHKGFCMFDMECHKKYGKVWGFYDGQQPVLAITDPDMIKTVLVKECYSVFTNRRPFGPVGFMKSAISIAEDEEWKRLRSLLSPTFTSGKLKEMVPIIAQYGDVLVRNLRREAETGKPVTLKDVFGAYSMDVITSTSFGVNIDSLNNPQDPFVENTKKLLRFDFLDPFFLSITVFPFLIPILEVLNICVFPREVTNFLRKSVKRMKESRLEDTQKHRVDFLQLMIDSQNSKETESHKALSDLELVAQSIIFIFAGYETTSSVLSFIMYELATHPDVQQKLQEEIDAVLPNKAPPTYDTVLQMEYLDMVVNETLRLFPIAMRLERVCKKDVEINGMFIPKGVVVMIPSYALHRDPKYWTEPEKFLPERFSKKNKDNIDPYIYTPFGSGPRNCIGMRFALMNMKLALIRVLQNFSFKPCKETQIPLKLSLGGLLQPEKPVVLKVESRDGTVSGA

CYP1A2 = CYP1A2 (Homo sapiens, UniProt P05177); test: Inhibition of CYP1A2 in human liver microsomes at 10 uM using phenacetin as substrate preincubated for 5 mins followed by NADPH addition and measured after 20 mins by LC-MS/MS analysis relative to control; format: ADME; conditions: probe phenacetin, time 25 min
Sequence of CYP1A2 (P05177 whole entry): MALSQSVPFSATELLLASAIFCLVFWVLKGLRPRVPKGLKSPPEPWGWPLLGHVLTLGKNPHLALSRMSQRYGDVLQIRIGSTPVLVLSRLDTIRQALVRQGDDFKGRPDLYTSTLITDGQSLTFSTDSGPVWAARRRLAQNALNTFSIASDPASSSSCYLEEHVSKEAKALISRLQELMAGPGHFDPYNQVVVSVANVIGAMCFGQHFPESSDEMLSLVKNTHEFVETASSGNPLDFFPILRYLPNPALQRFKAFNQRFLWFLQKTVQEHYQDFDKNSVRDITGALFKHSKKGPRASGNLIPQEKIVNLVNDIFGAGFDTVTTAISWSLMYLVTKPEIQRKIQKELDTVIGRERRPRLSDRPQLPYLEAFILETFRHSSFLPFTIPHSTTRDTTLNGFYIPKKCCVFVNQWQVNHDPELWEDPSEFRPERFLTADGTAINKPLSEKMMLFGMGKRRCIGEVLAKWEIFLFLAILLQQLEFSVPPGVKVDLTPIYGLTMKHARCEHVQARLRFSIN

CYP2D6 = CYP2D6 (Homo sapiens, UniProt P10635); test: Inhibition of CYP2D6 in human liver microsomes at 10 uM using dextromethorphan as substrate preincubated for 5 mins followed by NADPH addition and measured after 20 mins by LC-MS/MS analysis relative to control; format: ADME; conditions: probe dextromethorphan, time 25 min
Sequence of CYP2D6 (P10635 whole entry): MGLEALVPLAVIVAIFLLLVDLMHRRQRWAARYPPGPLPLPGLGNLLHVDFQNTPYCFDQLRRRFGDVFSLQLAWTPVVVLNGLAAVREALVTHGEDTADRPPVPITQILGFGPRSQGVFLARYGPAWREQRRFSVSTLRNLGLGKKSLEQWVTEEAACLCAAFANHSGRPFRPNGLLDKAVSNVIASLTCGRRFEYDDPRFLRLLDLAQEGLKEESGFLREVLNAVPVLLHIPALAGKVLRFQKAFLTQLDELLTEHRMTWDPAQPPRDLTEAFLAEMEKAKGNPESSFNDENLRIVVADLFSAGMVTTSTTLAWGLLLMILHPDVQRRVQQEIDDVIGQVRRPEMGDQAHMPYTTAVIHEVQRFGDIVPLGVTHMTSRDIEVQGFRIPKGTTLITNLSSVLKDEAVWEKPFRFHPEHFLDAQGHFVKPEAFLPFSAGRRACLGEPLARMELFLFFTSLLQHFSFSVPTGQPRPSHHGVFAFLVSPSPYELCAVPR

MV4-11 = test: Antiproliferative activity against human MV4-11 assessed as reduction in cell viability incubated for 72 hrs by MTT assay; format: functional, cell-based; conditions: MV4-11, 72 h
MCF7 = test: cells; conditions: Homo sapiens, MCF7, 72 h
A549 = test: Antiproliferative activity against human A549 assessed as reduction in cell viability incubated for 72 hrs by MTT assay; format: functional, cell-based; conditions: A549, 72 h
Endoplasmin = Endoplasmin (Homo sapiens, UniProt P14625); test: Displacement of FITC-geldanamycin from N-terminal GRP94 (unknown origin) after 30 mins by fluorescence polarization competitive binding assay
Sequence of Endoplasmin (P14625 whole entry): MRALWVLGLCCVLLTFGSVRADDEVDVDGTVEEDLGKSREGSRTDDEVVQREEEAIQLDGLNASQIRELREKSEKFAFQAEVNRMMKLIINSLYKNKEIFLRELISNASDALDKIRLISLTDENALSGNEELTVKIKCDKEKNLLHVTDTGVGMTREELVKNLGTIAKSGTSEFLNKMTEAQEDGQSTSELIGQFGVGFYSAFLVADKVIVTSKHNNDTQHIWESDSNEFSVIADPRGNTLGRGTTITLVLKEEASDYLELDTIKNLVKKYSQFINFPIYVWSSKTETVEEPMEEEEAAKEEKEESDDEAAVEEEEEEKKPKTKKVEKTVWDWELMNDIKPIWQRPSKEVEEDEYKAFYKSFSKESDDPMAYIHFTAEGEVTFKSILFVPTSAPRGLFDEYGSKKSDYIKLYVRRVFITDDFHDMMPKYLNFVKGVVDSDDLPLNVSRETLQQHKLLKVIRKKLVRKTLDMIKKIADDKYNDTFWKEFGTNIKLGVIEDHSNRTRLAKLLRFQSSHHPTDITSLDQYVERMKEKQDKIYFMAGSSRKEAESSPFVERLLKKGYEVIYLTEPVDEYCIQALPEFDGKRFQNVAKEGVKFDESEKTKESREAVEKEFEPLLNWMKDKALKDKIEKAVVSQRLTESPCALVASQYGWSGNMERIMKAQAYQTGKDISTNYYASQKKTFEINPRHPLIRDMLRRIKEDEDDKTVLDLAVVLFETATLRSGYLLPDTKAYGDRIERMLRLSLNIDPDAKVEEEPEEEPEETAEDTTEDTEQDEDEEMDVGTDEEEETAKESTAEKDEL

T47D = test: Antiproliferative activity against human T47D assessed as reduction in cell viability incubated for 72 hrs by MTT assay; format: functional, cell-based
[1] = Apparent clearance during terminal phase in rat at 10 mg/kg, iv measured upto 24 hrs by LC-MS/MS analysis; format: ADME, organism-based; conditions: in vivo
HepG2 = test: Antiproliferative activity against human HepG2 assessed as reduction in cell viability incubated for 72 hrs by MTT assay; format: functional, cell-based; conditions: HepG2, 72 h
K562 = test: Antiproliferative activity against human K562 assessed as reduction in cell viability incubated for 72 hrs by MTT assay; format: functional, cell-based; conditions: K562, 72 h
[2] = target: T1, Heat shock protein HSP90 (Homo sapiens) (UniProt P07900+P08238); test: Inhibition of HSP90 in human HCT-116 cells assessed as reduction in AKT protein expression after 24 hrs by Western blot analysis; format: cell-based; conditions: dose 0.01-3 µM
[3] = Tmax in rat at 50 mg/kg, po measured upto 24 hrs by LC-MS/MS analysis; format: ADME, organism-based; conditions: in vivo
BT-474 = test: Antiproliferative activity against human BT-474 assessed as reduction in cell viability incubated for 72 hrs by MTT assay; format: functional, cell-based; conditions: BT-474, 72 h
[4] = Metabolic stability in human liver microsomes assessed as parent compound remaining at 1 uM preincubated for 5 mins followed by NADPH addition and measured up to 120 mins by LC-MS/MS analysis; format: ADME, Microsome; conditions: 2 h, time <=125 min
[5] = Half life in human liver microsomes at 1 uM preincubated for 5 mins followed by NADPH addition and measured up to 120 mins by LC-MS/MS analysis; format: ADME, Microsome; conditions: 2 h, time <=125 min
[6] = target: Heat shock protein HSP 90-alpha (Homo sapiens, UniProt P07900); test: Displacement of FITC-geldanamycin from N-terminal HSP90alpha (unknown origin) after 30 mins by fluorescence polarization competitive binding assay
[7] = target: T1, Heat shock protein HSP90 (Homo sapiens); test: Inhibition of HSP90 in human HCT-116 cells assessed as induction of HSP70 expression after 24 hrs by Western blot analysis; format: cell-based; conditions: dose 0.01-3 µM
[8] = Apparent volume of distribution in rat at 50 mg/kg, po measured upto 24 hrs by LC-MS/MS analysis; format: ADME, organism-based; conditions: in vivo
[9] = Apparent volume of distribution in rat at 10 mg/kg, iv measured upto 24 hrs by LC-MS/MS analysis; format: ADME, organism-based; conditions: in vivo, read-out: Vz
[10] = Intrinsic clearance in human liver microsomes at 1 uM preincubated for 5 mins followed by NADPH addition and measured up to 120 mins by LC-MS/MS analysis; format: ADME, Microsome; conditions: 2 h, time <=125 min
MKN-28 = test: Antiproliferative activity against human MKN-28 assessed as reduction in cell viability incubated for 72 hrs by MTT assay; format: functional, cell-based; conditions: MKN-28, 72 h
SK-BR-3 = test: Antiproliferative activity against human SK-BR-3 assessed as reduction in cell viability incubated for 72 hrs by MTT assay; format: functional, cell-based; conditions: SK-BR-3, 72 h
[11] = Apparent clearance during terminal phase in rat at 50 mg/kg, po measured upto 24 hrs by LC-MS/MS analysis; format: ADME, organism-based; conditions: in vivo, read-out: CLz/F (converted)
[12] = Distribution coefficient, logD of compound at pH 7.4; format: physicochemical; conditions: octanol/water
L02 = test: Cytotoxicity against human L02 cells assessed as reduction in cell viability incubated for 72 hrs by MTT assay; format: cell-based; conditions: L02, 72 h
[13] = Half-life in rat at 10 mg/kg, iv measured upto 24 hrs by LC-MS/MS analysis; format: ADME, organism-based; conditions: in vivo
U2OS = test: Antiproliferative activity against human U2OS assessed as reduction in cell viability incubated for 72 hrs by MTT assay; format: functional, cell-based
MDA-MB-231 = test: Antiproliferative activity against human MDA-MB-231 assessed as reduction in cell viability incubated for 72 hrs by MTT assay; format: functional, cell-based; conditions: MDA-MB-231, 72 h
[14] = Oral bioavailability in rat at 50 mg/kg measured upto 24 hrs by LC-MS/MS analysis; format: ADME, organism-based; conditions: in vivo
[15] = target: T1, Heat shock protein HSP90 (Homo sapiens); test: Inhibition of HSP90 in human HCT-116 cells assessed as reduction in phosphorylated Erk after 24 hrs by Western blot analysis; format: cell-based; conditions: dose 0.01-3 µM
[16] = Half-life in rat at 50 mg/kg, po measured upto 24 hrs by LC-MS/MS analysis; format: ADME, organism-based; conditions: in vivo
[17] = AUC (0 to t) in rat at 10 mg/kg, iv measured upto 24 hrs by LC-MS/MS analysis; format: ADME, organism-based; set-up: route intravenous, dose 10 mg/kg, time <=24; conditions: in vivo
MDA-MB-468 = test: Antiproliferative activity against human MDA-MB-468 assessed as reduction in cell viability incubated for 72 hrs by MTT assay; format: functional, cell-based; conditions: MDA-MB-468, 72 h
HCT-116 = test: cells; conditions: Homo sapiens, HCT-116, 72 h
Description: Antiproliferative activity against human HCT-116 cells assessed as reduction in cell viability incubated for 72 hrs by MTT assay

[18] = Cmax in rat at 50 mg/kg, po measured upto 24 hrs by LC-MS/MS analysis; format: ADME, organism-based; set-up: route oral, dose 50 mg/kg, time <=24; conditions: in vivo
[19] = AUC (0 to t) in rat at 50 mg/kg, po measured upto 24 hrs by LC-MS/MS analysis; format: ADME, organism-based; set-up: route oral, dose 50 mg/kg, time <=24; conditions: in vivo
[20] = Intrinsic aqueous solubility of the compound; format: physicochemical
[21] = Permeability of the compound at pH 7.4 by PAMPA; format: ADME; conditions: read-out: permeability
[22] = Selectivity ratio of IC50 for inhibition of FITC-geldanamycin binding to N-terminal GRP94 (unknown origin) to IC50 for inhibition of FITC-geldanamycin binding to N-terminal HSP90alpha (unknown origin)
[23] = target: T1, Heat shock protein HSP90 (Homo sapiens); test: Inhibition of HSP90 in human HCT-116 cells assessed as reduction in Erk protein expression after 24 hrs by Western blot analysis; format: cell-based; conditions: dose 0.01-3 µM

SMILES: CC(=O)N1CCN(c2ccc(OCC3COC(Cn4ccnc4)(c4ccc(Cl)cc4Cl)O3)cc2)CC1 (stereo unspecified) [KETOCONAZOLE]
inhibition at 20 min, 10 µM (CYP3A4): 72%

inhibition at 20 min, 10 µM (CYP1A2): 76%
SMILES: O=c1cc(-c2ccccc2)oc2c1ccc1ccccc12 [ALPHA-NAPHTHOFLAVONE]

inhibition at 20 min, 10 µM (CYP2D6): 89%
SMILES: C=C[C@H]1C[N@@]2CC[C@H]1C[C@@H]2[C@@H](O)c1ccnc2ccc(OC)cc12 [QUINIDINE]

SMILES: COCCOc1ncc2c(n1)CCN(C(=O)c1cc(C(C)C)c(O)cc1O)C2
IC50 (MV4-11): 31 nM | IC50 (MCF7): 120 nM | IC50 (A549): 168 nM | IC50 (Endoplasmin): 198 nM | IC50 (T47D): 183 nM | CLz/F [1]: 235.3 mL/min/kg | IC50 (HepG2): 119 nM | IC50 (K562): 109 nM | inhibition [2]: Dose-dependent effect | Tmax [3]: 0.5 h | IC50 (BT-474): 144 nM | Stabilty [4]: 81.5% | t1/2 [5]: 3.23 h | IC50 [6]: 19 nM | inhibition [7]: Dose-dependent effect | Vz [8]: 2072.05 L/kg | Vd [9]: 86.6 L/kg | CLint [10]: 4.88 mL/min/kg | IC50 (MKN-28): 325 nM | IC50 (SK-BR-3): 175 nM | CL/F [11]: 3320 mL/min/kg | logD [12]: 2.14 | IC50 (L02): 27600 nM | half-life [13]: 4.16 h | IC50 (U2OS): 107 nM | IC50 (MDA-MB-231): 129 nM | bioavailability [14]: 7% | inhibition [15]: Dose-dependent effect | half-life [16]: 7.4 h | AUC(0-t) at 24 h [17]: 757 ng·h/mL | IC50 (MDA-MB-468): 172 nM | IC50 (HCT-116): 170 nM | Cmax [18]: 40.7 ng/mL | AUC(0-t) at 24 h [19]: 265 ng·h/mL | solubility [20]: 140 µg/mL (≈ 361 µM) | Papp [21]: 55.5 ×10⁻⁶ cm/s | Ratio IC50 [22]: 10.4 | inhibition [23]: Dose-dependent effect
